Reference: paper PMC6943619, “Synthesis and Pharmacological Evaluation of Hybrids Targeting Opioid and Neurokinin Receptors” (Molecules, 2019)
Where a SMILES comes first, the peptide text is derived from it. Bridges are numbered along the chain shown (N, C = ends). [ ]: non-standard residue; d: D form.

What was measured:
DOR = molecular target: T1, DOR (Homo sapiens, UniProt P41143); test: Calcium mobilization functional assay, agonist mode; type: cell-based; settings: CHO cells co-expressing DOR and GαqG66Di5; Fluo-4 AM calcium signal; n = 5
T1 construct: expressed in transfected cells; host or cells: CHO cells (University of Ferrara), co-expressing GαqG66Di5

human MOR = molecular target: T2, human MOR (Homo sapiens, UniProt P35372); test: as above; type: cell-based; settings: CHO cells co-expressing human MOR and Gαqi5; Fluo-4 AM calcium signal; n = 5; read-out: MOR pEC50 (CL95%) (converted)
T2 construct: expressed in transfected cells; host or cells: CHO cells (University of Ferrara), co-expressing Gαqi5

[1] = molecular target: T3, human opioid receptor DOR (Homo sapiens, UniProt P41143); test: Radioligand binding assay, displacement of [3H]deltorphin-2; settings: displacement of [3H]deltorphin-2 from membranes of CHO cells transfected with human DOR, 50 mM Tris/HCl pH 7.4, 0.5% BSA, peptidase inhibitors, 2 h at 25 °C, mean ± SEM, n ≥ 3
T3 construct: purchased PerkinElmer (Krakow, Poland); host or cells: CHO cell membranes
Protocol: A radioligand binding assay was performed to determine the opioid receptor (OR) binding affinities of the novel analogs using commercially available membranes of Chinese hamster ovary cells (CHO) transfected with human recombinant ORs. […] Tyr-[D-Lys-Phe-Phe-Asp]NH2 (1) was used as a reference opioid compound.
(§1) To determine the affinity of peptide analogs to respective receptors, competition binding experiments were performed, as described in detail elsewhere.
(§2) Commercial membranes of CHO cells stably expressing either human ORs or NK1 receptor were used. […] Membranes were incubated in a 0.5 mL volume of 50 mM Tris/HCl (pH = 7.4), 0.5% bovine serum albumin (BSA), with a number of peptidase inhibitors (bacitracin, bestatin, captopril) and various concentrations of radioligands for 2 h at 25 °C.
(§3) The pharmacological terminology adopted in this paper is consistent with International Union of Basic and Clinical Pharmacology (IUPHAR) recommendations. Concentration–response curves were analyzed by nonlinear regression using Graph Pad Prism 6.0 (La Jolla, CA, USA). […] Concentration–response curves were fitted with the four-parameter logistic nonlinear regression model (1) Effect=baseline+Emax−baseline/1+10^logEC50−X·n where X is the agonist concentration and n is the Hill coefficient. Ligand efficacy was expressed as intrinsic activity (α) calculated as a ratio of the peptide Emax to the Emax of the standard agonist (Supplementary Materials, Figure S7). […] All statistical analyses were performed using Graph Pad Prism 6.0 (La Jolla, CA, USA). Differences between groups were analyzed with one-way ANOVA and a post hoc multiple comparison by the Student–Newman–Keuls test. A probability level of 0.05 or smaller was used to indicate statistical significance.

[2] = molecular target: T4, human opioid receptor KOR (Homo sapiens, UniProt P41145); test: Radioligand binding assay, displacement of [3H]U-69593; settings: displacement of [3H]U-69593 from membranes of CHO cells transfected with human KOR, 50 mM Tris/HCl pH 7.4, 0.5% BSA, peptidase inhibitors, 2 h at 25 °C, mean ± SEM, n ≥ 3
T4 construct: purchased PerkinElmer (Krakow, Poland); host or cells: CHO cell membranes
Protocol: (§4) A radioligand binding assay was performed to determine the opioid receptor (OR) binding affinities of the novel analogs using commercially available membranes of Chinese hamster ovary cells (CHO) transfected with human recombinant ORs. [^3H]DAMGO, [^3H]deltorphin-2, and [^3H]U-69593 were used as the radioligands for MOR, DOR, and KOR, respectively. Tyr-[D-Lys-Phe-Phe-Asp]NH2 (1) was used as a reference opioid compound. […] None of them acquired significant DOR affinity.
as §1
(§5) Commercial membranes of CHO cells stably expressing either human ORs or NK1 receptor were used. [^3H]DAMGO, [^3H]deltorphin-2, and [^3H]U-69593 were employed as the competing radioligands for MOR, DOR, and KOR, respectively, while [^3H][Sar^9, Met(O2)^11]SP was utilized for the NK1 receptor. Membranes were incubated in a 0.5 mL volume of 50 mM Tris/HCl (pH = 7.4), 0.5% bovine serum albumin (BSA), with a number of peptidase inhibitors (bacitracin, bestatin, captopril) and various concentrations of radioligands for 2 h at 25 °C. Nonspecific binding was assessed in the presence of […] naloxone for ORs or SP for NK1 receptor.
(§6) The pharmacological terminology adopted in this paper is consistent with International Union of Basic and Clinical Pharmacology (IUPHAR) recommendations. Concentration–response curves were analyzed by nonlinear regression using Graph Pad Prism 6.0 (La Jolla, CA, USA). […]. […] Concentration–response curves were fitted with the four-parameter logistic nonlinear regression model (1) Effect=baseline+Emax−baseline/1+10^logEC50−X·n where X is the agonist concentration and n is the Hill coefficient. Ligand efficacy was expressed as intrinsic activity (α) calculated as a ratio of the peptide Emax to the Emax of the standard agonist (Supplementary Materials, Figure S7). […]. All statistical analyses were performed using Graph Pad Prism 6.0 (La Jolla, CA, USA). Differences between groups were analyzed with one-way ANOVA and a post hoc multiple comparison by the Student–Newman–Keuls test. A probability level of 0.05 or smaller was used to indicate statistical significance.

human KOR = molecular target: T5, human KOR (Homo sapiens, UniProt P41145); test: Calcium mobilization functional assay, agonist mode; type: cell-based; settings: CHO cells co-expressing human KOR and Gαqi5; Fluo-4 AM calcium signal; n = 5; read-out: KOR pEC50 (CL95%) (converted)
T5 construct: expressed in transfected cells; host or cells: CHO cells (University of Ferrara), co-expressing Gαqi5

mice = test: Stool collection (stool mass, stool water content); type: in vivo; settings: repeated i.p. injections 5 mg/kg, stool collected 90 min after injection on Days 1–6, compared to control group, n = 10
Protocol: In order to determine the influence of prolonged administration of the tested compounds on gastrointestinal passage, stool was collected for six days from mice used in the tolerance development test.
Figure 5 Effect of repeated i.p. injections of saline and the tested peptides on stool mass (A), stool water content (B), food intake (C), and water consumption (D). The data represent mean ± SEM, n = 10. Statistical significance was assessed using one-way ANOVA and a post hoc multiple comparison by the Student–Newman–Keuls test. *** p < 0.001, as compared to control.
After the i.p. injections of saline or peptides (Days 1–6), mice were placed in a separate clean cages and stool was collected for a period of 90 min. Fecal pellets were collected immediately after expulsion to avoid evaporation and placed in closed 1.5 mL tubes. Tubes were weighed to obtain the wet weight of the stool. Then, the tubes were opened and stool was dried overnight at 65 °C and reweighed to obtain the dry weight. The stool water content was calculated from the difference between the wet and dry stool weights.

human NK1 = human NK1 (Homo sapiens, UniProt P25103); test: Radioligand binding assay, displacement of [3H][Sar9, Met(O2)11]SP; parameters: purchased PerkinElmer (Krakow, Poland); host or cells: CHO cell membranes; settings: displacement of [3H][Sar9, Met(O2)11]SP from membranes of CHO cells transfected with human NK1 receptor; 50 mM Tris/HCl pH 7.4, 0.5% BSA, peptidase inhibitors, 2 h at 25 °C; mean ± SEM, n ≥ 3
Protocol: The binding assay was also used to examine the affinity of the synthesized hybrids for NK1 in commercial membranes of CHO cells stably expressing human NK1.
as §1, §2, §3

[3] = molecular target: T6, human opioid receptor MOR (Homo sapiens, UniProt P35372); test: Radioligand binding assay, displacement of [3H]DAMGO; settings: displacement of [3H]DAMGO from membranes of CHO cells transfected with human MOR, 50 mM Tris/HCl pH 7.4, 0.5% BSA, peptidase inhibitors, 2 h at 25 °C, mean ± SEM, n ≥ 3
T6 construct: purchased PerkinElmer (Krakow, Poland); host or cells: CHO cell membranes
Protocol: as §4, §1, §5, §6

[4] = cited from earlier work
Description: Here, we report on the synthesis and the initial pharmacological testing of several hybrid peptides with opioid agonist/NK1 antagonist and opioid agonist/NK1 agonist profiles. We performed structure affinity/activity relationship studies, seeking hybrids that could simultaneously and potently bind opioid and NK1 receptors. Both types of hybrids were designed with the same opioid fragment to make the comparison of their activity easier. It was already documented in the literature that simultaneous activation of both MOR and KOR intensifies the analgesic effect of pure MOR agonists. There ...

T1 sequence (P41143 whole entry): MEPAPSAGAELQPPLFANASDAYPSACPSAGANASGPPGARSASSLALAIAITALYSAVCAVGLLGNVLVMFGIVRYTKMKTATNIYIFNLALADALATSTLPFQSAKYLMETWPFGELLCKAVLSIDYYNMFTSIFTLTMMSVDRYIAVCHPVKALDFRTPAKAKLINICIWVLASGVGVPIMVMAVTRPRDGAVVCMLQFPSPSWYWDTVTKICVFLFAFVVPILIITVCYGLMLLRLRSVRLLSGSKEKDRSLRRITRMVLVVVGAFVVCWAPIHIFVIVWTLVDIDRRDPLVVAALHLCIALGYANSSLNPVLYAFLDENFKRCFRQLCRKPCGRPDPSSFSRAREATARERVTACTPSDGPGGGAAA
T3 sequence (P41143 whole entry): as above
T2 sequence (P35372 whole entry): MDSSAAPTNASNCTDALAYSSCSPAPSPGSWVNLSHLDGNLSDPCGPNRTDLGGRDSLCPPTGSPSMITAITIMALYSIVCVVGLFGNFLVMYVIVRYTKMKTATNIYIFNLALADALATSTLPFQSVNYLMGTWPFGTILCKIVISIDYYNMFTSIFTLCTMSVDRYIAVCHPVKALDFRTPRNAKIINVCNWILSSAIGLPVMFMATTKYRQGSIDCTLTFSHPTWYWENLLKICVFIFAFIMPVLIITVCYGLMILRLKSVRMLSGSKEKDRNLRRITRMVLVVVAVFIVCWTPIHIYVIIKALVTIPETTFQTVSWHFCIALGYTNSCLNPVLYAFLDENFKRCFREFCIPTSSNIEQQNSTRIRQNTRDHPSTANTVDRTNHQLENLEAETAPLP
T6 sequence (P35372 whole entry): as above
Chain of human NK1 (P25103 whole entry): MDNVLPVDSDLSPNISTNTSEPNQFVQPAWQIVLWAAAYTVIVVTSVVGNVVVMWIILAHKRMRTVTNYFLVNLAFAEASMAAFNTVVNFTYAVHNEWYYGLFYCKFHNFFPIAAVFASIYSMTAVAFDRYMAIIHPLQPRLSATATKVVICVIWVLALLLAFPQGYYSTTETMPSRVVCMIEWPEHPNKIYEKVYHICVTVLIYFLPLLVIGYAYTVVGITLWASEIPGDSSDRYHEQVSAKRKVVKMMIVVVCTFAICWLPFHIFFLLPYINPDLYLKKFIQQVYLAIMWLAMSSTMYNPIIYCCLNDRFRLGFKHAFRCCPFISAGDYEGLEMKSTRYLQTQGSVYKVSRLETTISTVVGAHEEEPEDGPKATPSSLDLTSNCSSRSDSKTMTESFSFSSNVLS
T5 sequence (P41145 whole entry): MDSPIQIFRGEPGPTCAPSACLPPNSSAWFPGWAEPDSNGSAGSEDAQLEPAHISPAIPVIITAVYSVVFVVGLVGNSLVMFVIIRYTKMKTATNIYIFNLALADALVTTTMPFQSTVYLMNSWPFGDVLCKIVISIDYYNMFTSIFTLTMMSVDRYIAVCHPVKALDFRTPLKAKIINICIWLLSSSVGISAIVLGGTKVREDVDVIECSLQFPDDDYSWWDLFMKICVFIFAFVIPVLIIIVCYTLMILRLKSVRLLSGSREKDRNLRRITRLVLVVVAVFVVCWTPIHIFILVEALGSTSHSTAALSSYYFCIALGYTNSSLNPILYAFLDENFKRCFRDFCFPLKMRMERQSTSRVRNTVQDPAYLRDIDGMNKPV
T4 sequence (P41145 whole entry): as above

## NC(=O)[C@@H]1CC(=O)NCCCC[C@@H](NC(=O)[C@@H](N)Cc2ccc(O)cc2)C(=O)N[C@@H](Cc2ccccc2)C(=O)N[C@@H](Cc2ccccc2)C(=O)N1 [compound 1, Tyr-c[D-Lys-Phe-Phe-Asp]NH2] (H-Y[dK]FFD-NH2; lactam 2-5)
DOR
  DOR pEC50 (CL95%): Crc incomplete
Human MOR
  EC50: 1.05 nM
[1]
  Ki: 171 ± 3.5 nM
[2]
  Ki: 1.12 ± 0.2 nM
Human KOR
  EC50: 2.19 nM
mice
  stool mass (constipation): serious constipation
Human NK1
  Ki NK1: Inactive
[3]
  Ki: 0.35 ± 0.02 nM
[4]
  enzymatic stability: very good enzymatic stability
